Experimental data taken from US20180042882A1, “C16:1n7-PALMITOLEATE AND DERIVATIVES THEREOF FOR TREATING OBESITY, PROMOTING WEIGHT LOSS, AND SUPPORTING WEIGHT MANAGEMENT” (Tersus Life Sciences, LLC, priority 2015, published 2018).

Key:
bovine adipocytes [1] = experiment: Fatty acid composition of bovine adipocyte cultures with exogenous palmitoleic acid (GLC); type: cell-based; settings: P<0.05
From the text: (§1) Bovine adipocyte cultures were used to determine if addition of exogenous palmitoleic acid (C16:1n7) altered lipogenesis in vitro (Burns et al., 2012a). Adipocytes were harvested from the bovine cultures on day 6 and day 12 and analyzed using GLC and qPCR. […] In contrast, increasing concentrations of palmitoleic acid led to a decrease in palmitic acid (C16:0), stearic acid (C18:0), and oleic acid (C18:1) levels (P<0.05). FIG. 2 illustrates de novo lipogenesis and β-oxidation in an adipocyte after exogenous palmitoleic acid addition.
(§2) The desaturation ratio of C18:1 cis-9/C18:0 decreased (P<0.05) in response to increasing concentrations of palmitoleic acid, which was consistent with the observed decrease in SCD-1 mRNA expression.

ELOVL6 = experiment: qPCR mRNA expression in bovine adipocyte cultures; type: cell-based; settings: compared to untreated control cells; P<0.05
From the text: as §1, §2

FASN = experiment: qPCR mRNA expression in bovine adipocyte cultures; type: cell-based; settings: compared to untreated control cells; P<0.05
From the text: as §1, §2

SCD-1 = experiment: qPCR mRNA expression in bovine adipocyte cultures; type: cell-based; settings: compared to untreated control cells; P<0.05
From the text: as §1, §2

bovine adipocytes [2] = experiment: Rate of lipogenesis with [1-13C]acetate in bovine adipocytes; type: cell-based; settings: 2.5 mM [1-13C]acetate on day 6; compared to controls
From the text: as §2

[3] = tested on: Acyl-CoA dehydrogenase, long chain (ACADL); experiment: Expression of fatty acid oxidation genes in bovine adipocytes; type: cell-based; settings: normalized to EIF3K and UXT; P≦0.07
From the text: (§3) The effect of palmitoleic acid supplementation on fatty acid oxidation in bovine adipocytes (see Kadegowda et al., 2011a) was examined by measuring the expression levels of Acyl-Coenzyme A oxidase 2 (ACOX2), Acyl-CoA dehydrogenase, long chain (ACADL), Phytanoyl-CoA 2-hydroxylase (PHYH), Caveolini (CAV1) and Adipose differentiation-related protein (ADEP). The geometric mean of Eukaryotic translation initiation factor 3, subunit k (EIF3K) and Ubiquitously expressed transcript (UXT) was used for normalization.

[4] = tested on: Phytanoyl-CoA 2-hydroxylase (PHYH); experiment: as above; type: cell-based; settings: normalized to EIF3K and UXT
From the text: as §3

bovine adipocytes [5] = experiment: Fatty acid levels and desaturation (13C18:0, GLC-MS) in fatty acid supplemented bovine adipocytes; type: cell-based; settings: P<0.05
Protocol: In addition, cells were incubated with ^13C2 and ^13C18:0 on day 6 to estimate lipogenic and desaturation rates using GLC-MS.

CTP-1 = experiment: Enzymes involved in β-oxidation after exogenous palmitoleic acid; type: cell-based, bovine; settings: addition of exogenous palmitoleic acid
From the text: As such, C16:1n7-palmitoleate, derivatives thereof, pharmaceutically acceptable salts thereof, or a combination thereof, are useful in methods for reducing adipocyte hypertrophy and excess adipose tissue deposition.

[6] = Infusion of 13C16:1n7 in lambs, uptake and utilization; type: in vivo; settings: 5 mg/kg level, intravenous infusion
Protocol: This level of palmitoleic acid supplementation was selected based on previous experiments where lambs were infused with varying levels (0, 2, or 5 mg/kg) of ^13C16:1n7 to assess uptake and utilization in adipose tissues. […] This 5 mg/kg level is based on intravenous infusion levels and thus is adjusted for estimated ruminal bypass and intestinal absorption rates for dietary monounsaturated fatty acids for this oral feeding study.

[7] = increasing concentrations of palmitoleic acid (50, 150 and 300 μM), day 6 and day 12
[8] = increasing concentrations of palmitoleic acid

With `CCCCCC/C=C\CCCCCCCC(=O)O` [palmitoleic acid] the “desaturation ratio of C18:1 cis-9/C18:0” value (bovine adipocytes [1]; in response to increasing concentrations of palmitoleic acid) was “decreased”, the “cis-11 vaccenic acid (C18:1c11) levels in adipocytes” value (bovine adipocytes [1]; [7]) was “linear increase” and the “cis-13 eicosenoic acid (C20:1c13) levels in adipocytes” value (bovine adipocytes [1]; [7]) was “linear increase”. The “total fatty acid levels in adipocytes” value (bovine adipocytes [1]; [7]) was “linear increase”, the “Palmitoleic acid levels in adipocytes” value (bovine adipocytes [1]; increasing concentrations of palmitoleic acid (50, 150 and 300 μM), harvested day 6 and day 12) was “linear increase” and the “oleic acid (C18:1) levels in adipocytes” value (bovine adipocytes [1]; [8]) was “decrease”. The “palmitic acid (C16:0) levels in adipocytes” value (bovine adipocytes [1]; [8]) was “decrease”, the “stearic acid (C18:0) levels in adipocytes” value (bovine adipocytes [1]; [8]) was “decrease” and the “ELOVL6 mRNA expression levels” value (ELOVL6) was “reduction”. The “FASN mRNA expression levels” value (FASN) was “reduction”, the “SCD-1 mRNA expression levels” value (SCD-1) was “reduction” and the rate of lipogenesis (bovine adipocytes [2]) was “lower rate of lipogenesis”. For the same compound, the “increase in ACADL expression” value [3] was 2.36 fold, the “increase in PHYH expression” value [4] was 95.5 fold and the “13C18:1 cis-9 levels” value (bovine adipocytes [5]; after 12 h of 13C18:0 incubation, compared with all other treatments) was “lower”. For the same compound, the “C18:1 cis-9/C18:0 ratio” value (bovine adipocytes [5]; compared with all other treatments) was “lower”, the “C16: levels in supplemented cells” value (bovine adipocytes [5]; compared with control cells) was “elevated” and the “C18:1 cis-11 levels in supplemented cells” value (bovine adipocytes [5]; compared with control cells) was “elevated”. The “C20:1 cis-13 levels in supplemented cells” value (bovine adipocytes [5]; compared with control cells) was “elevated”, the “CTP-1 (enzyme involved in β-oxidation) regulation” value (CTP-1) was “upregulates” and the blood glucose levels ([6]; compared to control) was “altered”. For the same compound, the “concentrations of 13C16:1n7 in serum” value ([6]; lambs infused with 0, 2, or 5 mg/kg) was “greatest concentrations”.
